# According to ChEMBL document CHEMBL4304804, “Synthesis and biological evaluation of calycanthaceous alkaloid analogs” (Bioorg Med Chem, 2019):
# Calls of active or inactive are those of the source. The rule behind the calls is not given here.
# What was measured:
# Ralstonia solanacearum = experiment: Antibacterial activity against Ralstonia solanacearum assessed as reduction in bacterial cell growth incubated for 24 hrs by filter paper assay; type: functional
# Pseudomonas aeruginosa = experiment: Antibacterial activity against Pseudomonas aeruginosa assessed as reduction in bacterial cell growth incubated for 24 hrs by filter paper assay; type: functional
# Penicillium citrinum = experiment: Antifungal activity against Penicillium citrinum assessed as reduction in fungal cell growth incubated for 48 hrs by serial dilution method; type: functional
# [1] = tested on: Fusarium oxysporum f. sp. vasinfectum; experiment: Antifungal activity against Fusarium oxysporum sp. vasinfectum assessed as reduction in fungal cell growth incubated for 48 hrs by serial dilution method; type: functional
# Cryptococcus neoformans = experiment: Antifungal activity against Cryptococcus neoformans assessed as reduction in fungal cell growth incubated for 48 hrs by serial dilution method; type: functional
# Staphylococcus aureus = experiment: Antibacterial activity against Staphylococcus aureus assessed as reduction in bacterial cell growth incubated for 24 hrs by filter paper assay; type: functional
# Candida = experiment: Antifungal activity against […] assessed as reduction in fungal cell growth incubated for 48 hrs by serial dilution method; type: functional
# Acetylcholinesterase = Acetylcholinesterase (Electrophorus electricus, UniProt O42275); experiment: Inhibition of electric eel AChE by Ellman's colorimetry
# Chain of Acetylcholinesterase (O42275 whole entry): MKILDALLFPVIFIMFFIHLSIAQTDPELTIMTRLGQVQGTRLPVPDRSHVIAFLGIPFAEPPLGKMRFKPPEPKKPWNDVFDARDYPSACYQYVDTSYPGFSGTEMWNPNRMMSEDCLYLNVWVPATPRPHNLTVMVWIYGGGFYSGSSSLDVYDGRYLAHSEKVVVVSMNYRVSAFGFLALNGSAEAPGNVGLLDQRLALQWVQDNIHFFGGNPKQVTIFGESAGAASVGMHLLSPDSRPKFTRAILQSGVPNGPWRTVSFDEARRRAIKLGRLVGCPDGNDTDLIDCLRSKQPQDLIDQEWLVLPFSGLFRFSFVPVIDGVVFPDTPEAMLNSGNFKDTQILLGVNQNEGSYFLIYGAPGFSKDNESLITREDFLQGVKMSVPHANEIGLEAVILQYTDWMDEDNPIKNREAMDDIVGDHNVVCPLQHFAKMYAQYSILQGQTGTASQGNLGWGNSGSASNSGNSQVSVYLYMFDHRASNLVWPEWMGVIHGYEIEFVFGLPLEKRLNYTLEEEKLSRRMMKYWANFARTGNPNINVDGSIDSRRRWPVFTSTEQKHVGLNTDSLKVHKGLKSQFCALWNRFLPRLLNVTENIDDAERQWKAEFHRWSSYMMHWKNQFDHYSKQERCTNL
# Aspergillus flavus = experiment: Antifungal activity against Aspergillus flavus assessed as reduction in fungal cell growth incubated for 48 hrs by serial dilution method; type: functional
# Cytospora = experiment: Antifungal activity against Cytospora juglandis assessed as reduction in fungal cell growth incubated for 48 hrs by serial dilution method; type: functional
# Fusarium oxysporum = experiment: Antifungal activity against Fusarium oxysporum assessed as reduction in fungal cell growth incubated for 48 hrs by serial dilution method; type: functional
# Aspergillus niger = experiment: Antifungal activity against Aspergillus niger assessed as reduction in fungal cell growth incubated for 48 hrs by serial dilution method; type: functional
# Verticillium dahliae = experiment: Antifungal activity against Verticillium dahliae assessed as reduction in fungal cell growth incubated for 48 hrs by serial dilution method; type: functional
# Curvularia lunata = experiment: Antifungal activity against Curvularia lunata assessed as reduction in fungal cell growth incubated for 48 hrs by serial dilution method; type: functional
# [2] = tested on: Colletotrichum orbiculare; experiment: Antifungal activity against Colletotrichum orbiculare assessed as reduction in fungal cell growth incubated for 48 hrs by serial dilution method; type: functional
# Bacillus cereus = experiment: Antibacterial activity against Bacillus cereus assessed as reduction in bacterial cell growth incubated for 24 hrs by filter paper assay; type: functional
# Candida tropicalis = experiment: Antifungal activity against Candida tropicalis assessed as reduction in fungal cell growth incubated for 48 hrs by serial dilution method; type: functional
# Escherichia coli = experiment: Antibacterial activity against Escherichia coli assessed as reduction in bacterial cell growth incubated for 24 hrs by filter paper assay; type: functional
Molecule,MIC (Ralstonia solanacearum),MIC (Pseudomonas aeruginosa),MIC (Penicillium citrinum),MIC [1],MIC (Cryptococcus neoformans),MIC (Staphylococcus aureus),MIC (Candida),IC50 (Acetylcholinesterase) [µM],MIC (Aspergillus flavus),MIC (Cytospora),MIC (Fusarium oxysporum),MIC (Aspergillus niger),MIC (Verticillium dahliae) [µg/mL],MIC (Curvularia lunata),MIC [2],MIC (Bacillus cereus),MIC (Candida tropicalis),MIC (Escherichia coli)
CCCCC(=O)N1CCC2(Cc3ccccc3C)c3ccccc3N(Cc3ccccc3C)C12 (centres undefined),250 µg/mL,250 µg/mL,250 µg/mL,inactive,inactive,250 µg/mL,250 µg/mL,328,250 µg/mL,250 µg/mL,125 µg/mL,250 µg/mL,31.2,inactive,inactive,250 µg/mL,125 µg/mL,250 µg/mL
Cc1ccccc1CN1c2ccccc2C2(Cc3ccccc3C)CCN(C(=O)COc3ccccc3)C12 (centres undefined),inactive,inactive,125 µg/mL,inactive,inactive,inactive,250 µg/mL,787,250 µg/mL,250 µg/mL,250 µg/mL,250 µg/mL,250,inactive,250 µg/mL,250 µg/mL,250 µg/mL,inactive
CC1(C)S[C@@H]2[C@H](NC(=O)Cc3ccccc3)C(=O)N2[C@H]1C(=O)O [PENICILLIN G],–,–,–,–,–,15.6 µg/mL,–,–,–,–,–,–,–,–,–,7.81 µg/mL,–,–
COc1ccc(C(=O)N2CCC3(Cc4cccc(C)c4)c4ccccc4N(Cc4cccc(C)c4)C23)cc1 (centres undefined),inactive,inactive,250 µg/mL,inactive,inactive,inactive,inactive,2.81,250 µg/mL,250 µg/mL,250 µg/mL,250 µg/mL,125,inactive,inactive,inactive,inactive,inactive
Cc1ccccc1CN1c2ccccc2C2(Cc3ccccc3C)CCN(C(=O)C(F)(F)F)C12 (centres undefined),inactive,inactive,inactive,inactive,inactive,inactive,250 µg/mL,7.08,250 µg/mL,250 µg/mL,250 µg/mL,250 µg/mL,125,250 µg/mL,250 µg/mL,inactive,125 µg/mL,inactive
Cc1cccc(CN2c3ccccc3C3(Cc4cccc(C)c4)CCN(C(=O)COc4ccccc4)C23)c1 (centres undefined),inactive,inactive,250 µg/mL,250 µg/mL,inactive,inactive,250 µg/mL,6.25,250 µg/mL,125 µg/mL,250 µg/mL,250 µg/mL,250,inactive,250 µg/mL,250 µg/mL,125 µg/mL,inactive
COC(=O)Nc1nc2ccccc2[nH]1 [CARBENDAZIM],–,–,1.96 µg/mL,62.5 µg/mL,–,–,–,–,7.81 µg/mL,31.2 µg/mL,125 µg/mL,inactive,7.81,250 µg/mL,125 µg/mL,–,–,–
N#Cc1c(Cl)c(Cl)c(Cl)c(C#N)c1Cl [CHLOROTHALONIL],–,–,15.6 µg/mL,250 µg/mL,–,–,–,–,7.81 µg/mL,62.5 µg/mL,62.5 µg/mL,15.6 µg/mL,31.2,125 µg/mL,250 µg/mL,–,–,–
CCC(=O)N1CCC2(Cc3cccc(C)c3)c3ccccc3N(Cc3cccc(C)c3)C12 (centres undefined),inactive,inactive,inactive,inactive,inactive,62.5 µg/mL,250 µg/mL,0.919,250 µg/mL,62.5 µg/mL,125 µg/mL,125 µg/mL,250,250 µg/mL,250 µg/mL,31.2 µg/mL,250 µg/mL,250 µg/mL
GENTAMICIN,62.5 µg/mL,1.96 µg/mL,–,–,–,–,–,–,–,–,–,–,–,–,–,–,–,1.96 µg/mL
CCCC(=O)N1CCCC2(O)c3ccccc3N(C)C12 (centres undefined),31.2 µg/mL,250 µg/mL,inactive,inactive,inactive,inactive,inactive,122,inactive,inactive,inactive,inactive,250,inactive,inactive,inactive,inactive,inactive
Cc1cccc(CN2c3ccccc3C3(Cc4cccc(C)c4)CCN(C(=O)Cc4ccccc4)C23)c1 (centres undefined),inactive,inactive,250 µg/mL,125 µg/mL,inactive,inactive,inactive,453,250 µg/mL,250 µg/mL,250 µg/mL,250 µg/mL,250,inactive,inactive,inactive,inactive,inactive
CN1c2ccccc2C2(O)CCCN(C(=O)c3cccc(F)c3)C12 (centres undefined),250 µg/mL,250 µg/mL,inactive,inactive,inactive,inactive,inactive,0.337,inactive,inactive,inactive,inactive,250,inactive,inactive,inactive,inactive,250 µg/mL
Cc1ccccc1CN1c2ccccc2C2(Cc3ccccc3C)CCN(C(=O)c3ccccc3C)C12 (centres undefined),125 µg/mL,inactive,250 µg/mL,250 µg/mL,inactive,250 µg/mL,250 µg/mL,229,250 µg/mL,250 µg/mL,250 µg/mL,125 µg/mL,250,62.5 µg/mL,inactive,250 µg/mL,250 µg/mL,inactive
CCCCCCC(=O)N1CCC2(Cc3ccccc3C)c3ccccc3N(Cc3ccccc3C)C12 (centres undefined),125 µg/mL,250 µg/mL,125 µg/mL,250 µg/mL,inactive,inactive,250 µg/mL,90.8,250 µg/mL,62.5 µg/mL,125 µg/mL,250 µg/mL,62.5,125 µg/mL,250 µg/mL,inactive,250 µg/mL,250 µg/mL
CCCCCC(=O)N1CCC2(Cc3ccccc3C)c3ccccc3N(Cc3ccccc3C)C12 (centres undefined),250 µg/mL,125 µg/mL,250 µg/mL,inactive,inactive,inactive,125 µg/mL,217,250 µg/mL,125 µg/mL,125 µg/mL,250 µg/mL,62.5,125 µg/mL,250 µg/mL,inactive,inactive,inactive
CCCCC(=O)N1CCCC2(O)c3ccccc3N(C)C12 (centres undefined),62.5 µg/mL,250 µg/mL,inactive,inactive,inactive,125 µg/mL,inactive,27.4,inactive,inactive,inactive,inactive,250,inactive,inactive,inactive,inactive,250 µg/mL
CN[C@@H]1[C@H](O[C@H]2[C@H](O[C@H]3[C@H](O)[C@@H](O)[C@H](N=C(N)N)[C@@H](O)[C@@H]3N=C(N)N)O[C@@H](C)[C@]2(O)C=O)O[C@@H](CO)[C@H](O)[C@H]1O [STREPTOMYCIN],250 µg/mL,inactive,–,–,–,–,–,–,–,–,–,–,–,–,–,–,–,31.2 µg/mL
OC(Cn1cncn1)(Cn1cncn1)c1ccc(F)cc1F [FLUCONAZOLE],–,–,–,–,–,–,62.5 µg/mL,–,–,–,–,–,–,–,–,–,250 µg/mL,–
C[C@@H]1[C@H](O)[C@@H](C)/C=C/C=C/C=C/C=C/C=C/C=C/C=C/[C@H](O[C@@H]2O[C@H](C)[C@@H](O)[C@H](N)[C@@H]2O)C[C@@H]2O[C@](O)(C[C@@H](O)C[C@@H](O)[C@H](O)CC[C@@H](O)C[C@@H](O)CC(=O)O[C@H]1C)C[C@H](O)[C@H]2C(=O)O [AMPHOTERICIN B],–,–,–,–,1.96 µg/mL,–,250 µg/mL,–,–,–,–,–,–,–,–,–,–,–
